Laboratory results taken from patent US9221827B2, “Antimicrobial compounds and methods of making and using the same” (Melinta Therapeutics, Inc., priority 2011, dated 2015).

Test system: Escherichia coli strain ATCC25922
Experiment: standard microdilution assay to determine minimum inhibitory concentrations (MICs)
Type: cell-based
Summary of the method: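 Broth microdilution per CLSI (M7-A8/M100-S20), 100 μl final volume, with reference-strain quality control; MIC is the lowest inhibitory concentration. Scored "+"/"−" against a 16 micrograms/ml cutoff, "N/A" where unavailable.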

[1] = Escherichia coli strain ATCC25922, microdilution
[2] = Escherichia coli strain ATCC25922, standard microdilution assay

Compound	E. coli ATCC25922 MIC [1]	E. coli ATCC25922 MIC [2]	other results
CC(C)c1cc(CCC[C@H](C)N)cc(-c2cc3cn(-c4ccc(CNCCCNC(=N)N)cc4)c(=O)nc3[nH]2)c1Cl [Compound 261]	+ (a “+” indicates that the compound has an MIC value of 16 micrograms/ml or less)		
CCC(N)CCCc1cc(SC(F)(F)F)cc(-c2cc3cn(-c4ccc(C(C)NCCCNC(=N)N)cc4)c(=O)nc3[nH]2)c1 (stereo not drawn) [Compound 381]		+ (a “+” indicates that the compound has an MIC value of 16 micrograms/ml or less)	
CC(C)c1cc(CCCCN)cc(-c2cc3cn(-c4ccc(CNCCCN=C(N)N)c(F)c4)c(=O)nc3[nH]2)c1 [Compound 77]	+ (a “+” indicates that the compound has an MIC value of 16 micrograms/ml or less)		
N=C(N)NCCCNCc1ccc(-n2cc3cc(-c4cc(CCC5(CN)CC5)cc(C(F)(F)F)c4)[nH]c3nc2=O)cc1 [Compound 319]	+ (a “+” indicates that the compound has an MIC value of 16 micrograms/ml or less)		
C[C@H](NCCCNC(=N)N)c1ccc(-n2cc3cc(-c4cc(C[C@H]5C[C@H](N)C5)cc(C(F)(F)F)c4)[nH]c3nc2=O)cc1 [Compound 396]		+ (a “+” indicates that the compound has an MIC value of 16 micrograms/ml or less)	
CCc1cc(CCCC(C)N)cc(-c2cc3cn(-c4ccc(CNCCCNC(=N)N)cc4)c(=O)nc3[nH]2)c1F (stereo not drawn) [Compound 301]	+ (a “+” indicates that the compound has an MIC value of 16 micrograms/ml or less)		
CC(N)CCCc1cc(-c2cc3cn(-c4ccc(C(CCO)NCCCNC(=N)N)cc4)c(=O)nc3[nH]2)cc(C(F)(F)F)c1 (stereo not drawn) [Compound 505]	+ (a “+” indicates that the compound has an MIC value of 16 micrograms/ml or less)		
CC(N)COC(C)c1cc(-c2cc3cn(-c4ccc([C@H](C)NCCCNC(=N)N)cc4)c(=O)nc3[nH]2)cc(C(F)(F)F)c1 (stereo partly drawn) [Compound 478]	+ (a “+” indicates that the compound has an MIC value of 16 micrograms/ml or less)		
CC(CN)Cc1cc(Cl)c(F)c(-c2cc3cn(-c4ccc(CNCCCNC(=N)N)cc4)c(=O)nc3[nH]2)c1 (stereo not drawn) [Compound 256]	+ (a “+” indicates that the compound has an MIC value of 16 micrograms/ml or less)		
C[C@H](N)CCCc1cc(Cl)c(F)c(-c2cc3cn(-c4ccc([C@@H](C)N)cc4)c(=O)nc3[nH]2)c1 [Compound 406]		− (a “−” indicates that the compound has an MIC value greater than 16 micrograms/ml)	
CC(N)CCCc1cccc(-c2cc3cn(-c4ccc(CNCCCNC(=N)N)cc4)c(=O)nc3[nH]2)n1 (stereo not drawn) [Compound 370]		+ (a “+” indicates that the compound has an MIC value of 16 micrograms/ml or less)	
C[S+]([O-])Cc1cc(CCCCN)cc(-c2cc3cn(-c4ccc(CNCCCNC(=N)N)cc4)c(=O)nc3[nH]2)c1 (stereo not drawn) [Compound 2]	+ (a “+” indicates that the compound has an MIC value of 16 micrograms/ml or less)		
CCC(N)CCCc1cc(Cl)c(F)c(-c2cc3cn(-c4ccc(C(C)NCCCNC(=N)N)cc4)c(=O)nc3[nH]2)c1 (stereo not drawn) [Compound 374]		+ (a “+” indicates that the compound has an MIC value of 16 micrograms/ml or less)	
NCCC[C@@H](O)c1cc(OC(F)(F)F)cc(-c2cc3cn(-c4ccc(CNCCCN=C(N)N)cc4)c(=O)nc3[nH]2)c1 [Compound 76]	+ (a “+” indicates that the compound has an MIC value of 16 micrograms/ml or less)		
C[C@@H](CCCc1cc(-c2cc3cn(-c4ccc(CNCCCNC(=N)N)cc4)c(=O)nc3[nH]2)cc(C(F)(F)F)c1)N(C)C [Compound 309]	+ (a “+” indicates that the compound has an MIC value of 16 micrograms/ml or less)		
N=C(N)NCCCNCc1ccc(-n2cc3cc(-c4cc(CCC5(CN)CC5)cc(F)c4Cl)[nH]c3nc2=O)cc1 [Compound 223]	+ (a “+” indicates that the compound has an MIC value of 16 micrograms/ml or less)		
CC(C)(N)CCCc1cc(OC(F)(F)F)cc(-c2cc3cn(-c4ccc(CNCCCNC(=N)N)cc4)c(=O)nc3[nH]2)c1 [Compound 131]	+ (a “+” indicates that the compound has an MIC value of 16 micrograms/ml or less)		
C[C@H](NCCCNC(=N)N)c1ccc(-n2cc3cc(-c4cc(C[C@H]5C[C@@H](N)C5)cc(C(F)(F)F)c4)[nH]c3nc2=O)cc1 [Compound 395]		+ (a “+” indicates that the compound has an MIC value of 16 micrograms/ml or less)	
CSc1cc(CCCCN)cc(-c2cc3cn(-c4ccc(CNCCCNC(=N)N)cc4)c(=O)nc3[nH]2)c1C(F)(F)F [Compound 262]	+ (a “+” indicates that the compound has an MIC value of 16 micrograms/ml or less)		
CC(CCN)Cc1cc(OC(F)(F)F)cc(-c2cc3cn(-c4ccc(CNCCCNC(=N)N)cc4)c(=O)nc3[nH]2)c1 (stereo not drawn) [Compound 93]	+ (a “+” indicates that the compound has an MIC value of 16 micrograms/ml or less)		
C[C@H](N)CCCc1cc2c(c(-c3cc4cn(-c5ccc([C@H](C)NCCCNC(=N)N)cc5)c(=O)nc4[nH]3)c1)CC=C2 [Compound 457]		+ (a “+” indicates that the compound has an MIC value of 16 micrograms/ml or less)	

Compound	E. coli ATCC25922 MIC [1]	E. coli ATCC25922 MIC [2]	other results
C=C[C@H](NCCCNC(=N)N)c1ccc(-n2cc3cc(-c4cc(CCC[C@H](C)N)cc(Cl)c4F)[nH]c3nc2=O)cc1 [Compound 475]	+ (a “+” indicates that the compound has an MIC value of 16 micrograms/ml or less)		
CC(N)CCCc1cc(CC(F)(F)F)cc(-c2cc3cn(-c4ccc(C(C)NCCCNC(=N)N)cc4)c(=O)nc3[nH]2)c1 (stereo not drawn) [Compound 340]		+ (a “+” indicates that the compound has an MIC value of 16 micrograms/ml or less)	
CC(C)[C@H](NCCCNC(=N)N)c1ccc(-n2cc3cc(-c4cc(CCC[C@H](C)N)cc(Cl)c4F)[nH]c3nc2=O)cc1 [Compound 433]		+ (a “+” indicates that the compound has an MIC value of 16 micrograms/ml or less)	
N#Cc1cc(-c2cc3cn(-c4ccc(CNCCCNC(=N)N)cc4)c(=O)nc3[nH]2)cc(CCCCN)c1Cl [Compound 118]	+ (a “+” indicates that the compound has an MIC value of 16 micrograms/ml or less)		
CC(C)c1cc(CCC(C)(C)CN)cc(-c2cc3cn(-c4ccc(CNCCCNC(=N)N)cc4)c(=O)nc3[nH]2)c1 [Compound 97]	+ (a “+” indicates that the compound has an MIC value of 16 micrograms/ml or less)		
N=C(N)NCCCNCc1ccc(-n2cc3cc(-c4cc(CC5CCC(N)CC5)cc(Cl)c4F)[nH]c3nc2=O)cc1 (stereo not drawn) [Compound 448]		+ (a “+” indicates that the compound has an MIC value of 16 micrograms/ml or less)	
Cc1cc(CCC[C@H](C)N)cc(-c2cc3cn(-c4ccc([C@H](C)NCCCNC(=N)N)cc4)c(=O)nc3[nH]2)c1C [Compound 468]		+ (a “+” indicates that the compound has an MIC value of 16 micrograms/ml or less)	
CC(N)CCCc1cc(-c2cc3cn(-c4ccc(CNCCCNC(=N)N)cc4)c(=O)nc3[nH]2)c(F)c(Cl)c1F (stereo not drawn) [Compound 499]	+ (a “+” indicates that the compound has an MIC value of 16 micrograms/ml or less)		
Cc1c(Cl)cc(-c2cc3cn(-c4ccc(CNCCCNC(=N)N)cc4)c(=O)nc3[nH]2)cc1CCCCN [Compound 109]	+ (a “+” indicates that the compound has an MIC value of 16 micrograms/ml or less)		
CC(CN)Cc1cc(-c2cc3cn(-c4ccc(CNCCCNC(=N)N)cc4)c(=O)nc3[nH]2)c(F)c(C(F)(F)F)c1 (stereo not drawn) [Compound 280]	+ (a “+” indicates that the compound has an MIC value of 16 micrograms/ml or less)		
CC(N)CCCc1cc(Cl)c(F)c(-c2cc3cn(-c4ccc(C(C)NCCCNC(N)=NCC5CC5)cc4)c(=O)nc3[nH]2)c1 (stereo not drawn) [Compound 346]		+ (a “+” indicates that the compound has an MIC value of 16 micrograms/ml or less)	
CC(CCCc1cc(-c2cc3cn(-c4ccc(C(C)NCCCNC(=N)N)cc4)c(=O)nc3[nH]2)cc(C(F)(F)F)c1)NC(=N)N (stereo not drawn) [Compound 276]	+ (a “+” indicates that the compound has an MIC value of 16 micrograms/ml or less)		
CC(N)CCCc1cc(SC(F)(F)F)c(Cl)c(-c2cc3cn(-c4ccc(C(C)NCCCNC(=N)N)cc4)c(=O)nc3[nH]2)c1 (stereo not drawn) [Compound 289]	+ (a “+” indicates that the compound has an MIC value of 16 micrograms/ml or less)		
C[C@H](N)CCCc1cc(SC(F)(F)F)c(Cl)c(-c2cc3cn(-c4ccc([C@@H](C)N)cc4)c(=O)nc3[nH]2)c1 [Compound 409]		− (a “−” indicates that the compound has an MIC value greater than 16 micrograms/ml)	
C=CC[C@H](NCCCNC(=N)N)c1ccc(-n2cc3cc(-c4cc(CCC[C@H](C)N)cc(C(F)(F)F)c4)[nH]c3nc2=O)cc1 [Compound 474]	+ (a “+” indicates that the compound has an MIC value of 16 micrograms/ml or less)		
C[C@H](N)CCCc1cc(-c2cc3cn(-c4ccc([C@H](C)NCCCNC(=N)N)cc4)c(=O)nc3[nH]2)cc2c1COC2 [Compound 443]		+ (a “+” indicates that the compound has an MIC value of 16 micrograms/ml or less)	
NCCC[C@H](O)c1cc(OC(F)(F)F)cc(-c2cc3cn(-c4ccc(CNCCCN=C(N)N)cc4)c(=O)nc3[nH]2)c1 [Compound 75]	+ (a “+” indicates that the compound has an MIC value of 16 micrograms/ml or less)		
CC(N)CCCc1cc(Cl)c(F)c(-c2cc3cn(-c4ccc(C(C)NCCCNC(=N)N)cc4)c(=O)nc3[nH]2)c1 (stereo not drawn) [Compound 269]	+ (a “+” indicates that the compound has an MIC value of 16 micrograms/ml or less)		
C[C@H](N)CCCc1cc(Cl)c(F)c(-c2cc3cn(-c4ccc([C@H](C)NCCCNC(=N)N)cc4)c(=O)nc3[nH]2)c1 [Compound 234]			MIC (Escherichia coli strain ATCC25922, microdilution, read-out: E. coli ATCC25922 MIC): ≤ 16 µg/mL
CC(N)CCc1cc(OC(F)(F)F)cc(-c2cc3cn(-c4ccc(CNCCCNC(=N)N)cc4)c(=O)nc3[nH]2)c1 (stereo not drawn) [Compound 260]	+ (a “+” indicates that the compound has an MIC value of 16 micrograms/ml or less)		
CC(N)CCCc1cc(-c2cc3cn(-c4ccc(CNCCCNC(=N)N)cc4)c(=O)nc3[nH]2)c(F)c(C(F)(F)F)c1 (stereo not drawn) [Compound 275]	+ (a “+” indicates that the compound has an MIC value of 16 micrograms/ml or less)		
